Source: EP0395653B1, “SYNOVIAL PHOSPHOLIPASES” (ELI LILLY AND COMPANY, priority 1987, dated 1989)

Tests used:
highly purified PLA₂ = target: T1, highly purified PLA₂ (Homo sapiens, UniProt P14555); test: effect of SDS on rate of hydrolysis of phosphatidylcholine (Shakir's method); type: biochemical; conditions: of initial enzyme activity
T1 construct: from tissue; host or cells: pooled synovial fluid (CM Sephadex C50, Sephadex G75, preparative SDS-PAGE)
T1 sequence (P14555 21-144): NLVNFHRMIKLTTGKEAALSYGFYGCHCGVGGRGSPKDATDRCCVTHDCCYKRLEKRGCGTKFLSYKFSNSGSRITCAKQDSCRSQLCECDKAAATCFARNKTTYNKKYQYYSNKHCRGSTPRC
Experimental: Determination of phospholipase activities towards the radiolabeled synthetic substrates, dipalmitoylphosphatidylcholine, and 2-linoleoyl-1-palmitoylphosphatidylethanolamine, was carried out as described by Shakir, (1981) Anal Biochim 114:64-70. Standard incubation mixtures contained 750 nmol of phospholipid, 2 mM CaCl₂, 2 mM sodium deoxycholate (DOC), 0.09% Triton X-100, and enzyme protein in 0.1 M Tris-HCl buffer in a total volume of 400 µl. Incubations were carried out at optimal pH (see below) for 1 h at 37°C in a shaking water bath. The reaction was stopped by addition of 2.0 ml of n-heptane-isopropanol-1 N sulfuric acid (1:4:0.1, v/v/v). Released fatty acids were extracted by the method of Shakir, (1981) Anal Biochim 114:64-70. PLA₂ activity is expressed as nmol of released fatty acid per mg of protein per h.
The effect of SDS on the rate of hydrolysis of phosphatidylcholine by highly purified PLA₂ was studied using Shakir's method, supra. SDS inhibited PLA₂ activity on a concentration-dependent manner. Inhibition of PLA₂ was 94 and 7% of initial enzyme activity at SDS concentrations of 1 mg/ml and 0.1 mg/ml, respectively. In evaluating the utility of preparative SDS-PAGE, recovery of enzyme from the slab gel was consistently between 95-100% of the total enzyme applied to the gel.

sPLA₂ type A = sPLA₂ type A (Homo sapiens, UniProt P14555); conditions: 0.5 M Tris
sPLA₂ type B = test: effect of Tris or Na deoxycholate on hydrolytic activity; type: biochemical, human

CCCCCCCCCCCCOS(=O)(=O)[O-].[Na+] [SDS, sodium dodecyl sulfate]
inhibition at 100 µg/mL (highly purified PLA₂; SDS 0.1 mg/ml): 7% | inhibition at 1000 µg/mL (highly purified PLA₂; SDS 1 mg/ml): 94%

NC(CO)(CO)CO [Tris]
effect on sPLA₂ type A activity (sPLA₂ type A): inhibited | effect on hydrolytic activity of type B relative to type A (sPLA₂ type B; 0.5 M Tris): considerable stimulation

sodium deoxycholate [Na deoxycholate]
effect on hydrolytic activity of type B relative to type A (sPLA₂ type B; 0.1% Na deoxycholate): considerable stimulation
